Assay results as given in patent publication US20200384072A1, “THERAPY OF IONIZING RADIATION-INDUCED DISORDERS” (SCK-CEN, priority 2019, published 2020).

Assays:
TICAE cells = test: DNA damage, gamma H2AX and TP53BP1 foci, TICAE cells; format: cell-based, human; settings: 100 μM TAT-Gap19, 0.1 and 5 Gy, 1 h p.i.
Method: To detect DNA double strand breaks after IR, TICAE and TIME cells were seeded in Nunc™ Lab-Tek™ Chamber Slide (Thermo Fisher Scientific, Asse, Belgium) in 8 replicates, at seeding density of 50 000 cells/well. Two days later, cells reached 100% confluence. At 30 min before IR, a fresh medium was added to the cells with or without 100 μM TAT-Gap19. At 1 h post irradiation, cells were fixed with 2% PFA (Sigma-Aldrich Co. LCC, Diegem, Belgium) and permeabilized with 0.25% Triton X-100 (Sigma-Aldrich Co. LCC, Diegem, Belgium) in PBS. Cells were blocked for 1 h in 1% normal goat serum (Thermo Fisher Scientific, Asse, Belgium) in Tris-NaCl (Perkin Elmer, Brussels, Belgium). Thereafter, staining with 1/300 primary anti-gamma H2AX antibody (Merck-Millipore #05-636) and 1/1000 anti-TP53BP1 antibody (Novus Biologicals #NB100-304) was performed for 1 h at 37° C. After washing 3 times with PBS, secondary Alexa Fluor 488 and 568 antibodies (Life Technologies, Merelbeke, Belgium) were applied for 1 h at 37° C. Finally, the slides were mounted using ProLong Diamond Antifade Mountant with DAPI (Life Technologies, Merelbeke, Belgium), and cells were visualized with an Eclipse Ti automated inverted wide-field epifluorescence microscope (Nikon, Brussels, Belgium) equipped with a 20×Plan Fluor objective (NA 0.6) and an Andor Ixon EMCCD camera, controlled by the MS Elements software. […]

[1] = test system: primary brain microvascular endothelial cells (pBMECs); test: γ-H2AX counts after local 3×3 mm X-ray irradiation (irradiated and bystander zones), pBMECs; format: cell-based, mouse; settings: 1 Gy, 3 h post-irradiation
Method: Cortices, from 10-12 week old mice, were isolated by removing cerebellum, striatum, optic nerves, brain white matter, outer vessels and meninges. After homogenization with a Dounce homogenizer in WBB (Washing Buffer B: HMS, 10 mM Hepes, 0.35 g/L NaHCO3, 0.1% BSA), the homogenate was mixed with 30% dextran in WBB and centrifuged at 3000×g for 25 min at 4° C. The pellet containing the vascular component was then resuspended in WBB and filtered through a 60 μm NY60 Nylon Net Filter (Millipore, Darmstadt, Germany). Following centrifugation at 1000×g for 7 min at room temperature, the pellet was digested in collagenase/dispase supplement with DNase I (Roche Diagnostics, Vilvoorde, Belgium) and TLCK (Tosyl, Lysin chloromethyl ketone, sigma-aldrich) for 33 min at 37° C. in a shaking water bath. The digested capillary suspension was then seeded after multiple washing steps on wells coated with matrigel or glass coated with Corning Cell-Tak (VWR, Leuven, Belgium). For the isolation of intact capillaries the protocol was aborted just before the digestion step.
A defined area of the cell culture dishes were exposed to X-rays (1Gy or 20 Gy) by using a small animal radiation research platform (SARRP, Xstrahl, 220 kV, 13 mA), making use of a 3×3 mm collimator. Whole dish irradiation was done using a 10×10 cm broad-beam collimator, while localized Irradiation was performed with a 3×3 mm collimator. A Gafchromic RTQA2 film, with a sensitivity of 0.02 Gy, was placed underneath the cell dishes in order to delineate the irradiated zone.
Cells were fixed for 25 min with 4% formaldehyde (VWR) and blocked for 30 min with blocking buffer (5% normal goat serum, 1% bovine serum albumin (BSA), 0.2% Triton X-100 in PBS D+). Overnight incubation with primary antibody (1/500 anti-γ-H2AX in dilution buffer, 1/10 blocking buffer in PBS D+) was followed by a 1 h incubation with 1/400 XX-biotin-goat-anti-mouse antibody in dilution buffer, followed by a 1 h incubation with 1/400 streptavidin-alexa488 in PBS D+. Nuclei were stained with 1 μg/mL DAPI in PBS D+ for 10 min and cells were kept in PBS D+ supplemented with NaN3 at 4° C. All steps except the overnight incubation which was carried out at 4° C., were carried out at room temperature and cell cultures were rinsed thoroughly with PBS D+ between all incubation steps. Imaging was performed with an automated BD Pathway 435 imaging system (10× objective, 10×10 montage resulting in an overall image size of 8.5×6.5 mm). We then quantified the number of γ-H2AX-foci positive nuclei in the directly irradiated and bystander areas and expressed the count as a percentage relative to the number of nuclei and subtracted the percentage of background γ-H2AX signal in non-irradiated paired control cultures for each experiment. For counting γ-H2AX foci, images were thresholded to remove background pixel noise below the foci level. Where applicable, results were normalized against vehicle (bar charts with a 100% vehicle bar without statistical variability or a horizontal line).

TAT-Gap19: connexin mimetic peptide, amino-acids 128-136 of the CL of Cx43 (SEQ ID NO: 2), Gap19 linked to TAT sequence; Cx43 hemichannel inhibitor (YGRKKRRQRRRKQIEIKKFK)
gamma H2AX, TP53BP1 and colocalized foci (radiation-induced DNA damage) (TICAE cells): not affected | γ-H2AX counts in the bystander zone (normalized to vehicle) [1]: only had effect in the bystander zone | γ-H2AX counts in the irradiated area (normalized to vehicle) [1]: only had effect in the bystander zone
